System: peripheral blood mononuclear cells (PBMC) stimulated with allogeneic PBMC or EBV-transformed human B cells (RPMI1788)
Test: Mixed lymphocyte reaction (MLR) assay
Type: cell-based
Conditions: Homo sapiens, RPMI-1788; MLR assay of example 319; read-out: MLR IC50
Outline: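 Compounds, held as 10 mM DMSO stocks and diluted in culture medium, were added to PBMC stimulated by 30 Gy-irradiated allogeneic PBMC or RPMI1788 cells. Proliferation was read as [3H]-thymidine uptake (1 μCi, final 16 h) after 5 days at 37° C. Inhibition was derived from cpm.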

## N#CCOc1ccc(-c2ccc3nc(N)nc(N4CCN(C(=O)COc5ccc(Cl)cc5)CC4)c3n2)cc1 [Example 503, 2-amino-4-[N-(4-chlorophenoxyacetyl)-piperazin-1-yl]-6-(4-cyano-methoxyphenyl)-pyrido(3,2-d)pyrimidine]
  IC50: 20 nM

## CC(=O)Oc1ccc(-c2ccc3nc(N)nc(N4CCN(C(=O)COc5ccc(Cl)cc5)CC4)c3n2)cc1 [Example 504, 2-amino-4-[N-(4-chlorophenoxyacetyl)-piperazin-1-yl]-6-(4-acetoxy-phenyl)-pyrido(3,2-d)pyrimidine]
  IC50: 50 nM

## COc1ccc(-c2ccc3nc(N)nc(N4CCN(C(=O)COc5ccc(Cl)cc5)CC4)c3n2)c(OC)c1 [Example 505, 2-amino-4-[N-(4-chlorophenoxyacetyl)-piperazin-1-yl]-6-(2,4-dimethoxyphenyl)-pyrido(3,2-d)pyrimidine]
  IC50: 72 nM

## COc1ccc(OC)c(-c2ccc3nc(N)nc(N4CCN(C(=O)COc5ccc(Cl)cc5)CC4)c3n2)c1 [Example 506, 2-amino-4-[N-(4-chlorophenoxyacetyl)-piperazin-1-yl]-6-(2,5-dimethoxyphenyl)-pyrido(3,2-d)pyrimidine]
  IC50: 690 nM

## Cc1ccc(-c2ccc3nc(N)nc(N4CCN(C(=O)COc5ccc(Cl)cc5)CC4)c3n2)cc1N [Example 507, 2-amino-4-[N-(4-chlorophenoxyacetyl)-piperazin-1-yl]-6-(3-amino-4-methylphenyl)-pyrido(3,2-d)pyrimidine]
  IC50: 29 nM

## CCc1ccc(-c2ccc3nc(N)nc(N4CCN(C(=O)COc5ccc(Cl)cc5)CC4)c3n2)cc1 [Example 508, 2-amino-4-[N-(4-chlorophenoxyacetyl)-piperazin-1-yl]-6-(4-ethylphenyl)-pyrido(3,2-d)pyrimidine]
  IC50: 12 nM

## COc1ccc(-c2ccc3nc(N)nc(N4CCN(C(=O)COc5ccc(Cl)cc5)CC4)c3n2)cc1C [Example 509, 2-amino-4-[N-(4-chlorophenoxyacetyl)-piperazin-1-yl]-6-(3-methyl-4-methoxyphenyl)-pyrido(3,2-d)pyrimidine]
  IC50: 31 nM

## CCOC(=O)c1ccc(-c2ccc3nc(N)nc(N4CCN(C(=O)COc5ccc(Cl)cc5)CC4)c3n2)cc1 [Example 510, 2-amino-4-[N-(4-chlorophenoxyacetyl)-piperazin-1-yl]-6-(4-ethoxycarbonylphenyl)-pyrido(3,2-d)pyrimidine]
  IC50: 32 nM

## Cc1csc(-c2ccc3nc(N)nc(N4CCN(C(=O)COc5ccc(Cl)cc5)CC4)c3n2)c1 [Example 511, 2-amino-4-[N-(4-chlorophenoxyacetyl)-piperazin-1-yl]-6-(4-methyl-2-thienyl)-pyrido(3,2-d)pyrimidine]
  IC50: 54 nM

## Cc1ccccc1-c1ccc2nc(N)nc(N3CCN(C(=O)COc4ccc(Cl)cc4)CC3)c2n1 [Example 512, 2-amino-4-[N-(4-chlorophenoxyacetyl)-piperazin-1-yl]-6-(2-methyl-phenyl)-pyrido(3,2-d)pyrimidine]
  IC50: 8 nM

## Nc1nc(N2CCN(C(=O)COc3ccc(Cl)cc3)CC2)c2nc(-c3ccc(OCc4ccccc4)c(F)c3)ccc2n1 [Example 513, 2-amino-4-[N-(4-chlorophenoxyacetyl)-piperazin-1-yl]-6-(3-fluoro-4-benzyloxy-phenyl)-pyrido(3,2-d)pyrimidine]
  IC50: > 10000 nM

## COc1cc(-c2ccc3nc(N)nc(N4CCN(C(=O)COc5ccc(Cl)cc5)CC4)c3n2)ccc1N [Example 514, 2-amino-4-[N-(4-chlorophenoxyacetyl)-piperazin-1-yl]-6-(3-methoxy-4-amino-phenyl)-pyrido(3,2-d)pyrimidine]
  IC50: 71 nM

## Cc1ccc(-c2ccc3nc(N)nc(N4CCN(C(=O)COc5ccc(Cl)cc5)CC4)c3n2)cc1C [Example 516, 2-amino-4-[N-(4-chlorophenoxyacetyl)-piperazin-1-yl]-6-(3,4-dimethyl-phenyl)-pyrido(3,2-d)pyrimidine]
  IC50: 56 nM

## COc1ccc(-c2ccc3nc(N)nc(N4CCN(C(=O)COc5ccc(Cl)cc5)CC4)c3n2)cc1Cl [Example 517]
  IC50: 12 nM

## Nc1nc(N2CCN(C(=O)C3CCc4ccccc4O3)CC2)c2nc(-c3ccc(F)cc3)ccc2n1 (centres unmarked) [Example 524, [4-(2-amino-6-(4-fluorophenyl)pyrido[3,2-d]pyrimidin-4-yl)piperazin-1-yl]chroman-2-ylmethanone]
  IC50: 225 nM

## Cc1cccc(NC(=O)N2CCN(c3nc(C)nc4ccc(-c5ccc(F)cc5)nc34)CC2)c1 [Example 531, 2-methyl-4-[N-(3-methylphenylcarbamoyl)piperazin-1-yl]-6-(4-fluorophenyl)-pyrido[3,2-d]pyrimidine]
  IC50: 84 nM

## Cc1cccc(NC(=O)N2CCN(c3nc(-c4ccccc4)nc4ccc(-c5ccc(F)cc5)nc34)CC2)c1 [Example 533, 2-phenyl-4-[N-(3-methylphenylcarbamoyl)piperazin-1-yl]-6-(4-fluorophenyl)-pyrido[3,2-d]pyrimidine]
  IC50: 2600 nM

## Cc1cccc(NC(=O)N2CCN(c3nc(CN(C)C)nc4ccc(-c5ccc(F)cc5)nc34)CC2)c1 [Example 537, 2-(N,N-dimethylamino)methyl-4-[N-(3-methylphenylcarbamoyl)piperazin-1-yl]-6-(4-fluorophenyl)-pyrido[3,2-d]pyrimidine]
  IC50: 3300 nM

## COCCNCc1nc(N2CCN(C(=O)Nc3cccc(C)c3)CC2)c2nc(-c3ccc(F)cc3)ccc2n1 [Example 538, 2-(N-methoxyethylamino)methyl-4-[N-(3-methylphenylcarbamoyl)piperazin-1-yl]-6-(4-fluorophenyl)-pyrido[3,2-d]pyrimidine]
  IC50: 340 nM

## Cc1cccc(NC(=O)N2CCN(c3nc(CNC4CC4)nc4ccc(-c5ccc(F)cc5)nc34)CC2)c1 [Example 539, 2-(N-cyclopropylamino)methyl-4-[N-(3-methylphenylcarbamoyl)piperazin-1-yl]-6-(4-fluorophenyl)-pyrido[3,2-d]pyrimidine]
  IC50: 700 nM

## Cc1cccc(NC(=O)N2CCN(c3nc(N)nc4ccc(Cl)nc34)CC2)c1 [Example 541, 2-amino-4-[(3-methylphenylcarbamoyl)-piperazin-1-yl]-6-chloro-pyrido[3,2-d]pyrimidine]
  IC50: 60 nM

## Cc1cccc(NC(=O)N2CCN(c3nc(N)nc4ccc(-c5ccncc5)nc34)CC2)c1 [Example 542, 2-amino-4-[(3-methylphenylcarbamoyl)-piperazin-1-yl]-6-(4-pyridyl)-pyrido[3,2-d]pyrimidine]
  IC50: 5 nM

## Cc1cccc(NC(=O)N2CCN(c3nc(N)nc4ccc(-c5ccc(C#N)cc5)nc34)CC2)c1 [Example 543, 2-amino-4-[(3-methylphenylcarbamoyl)-piperazin-1-yl]-6-(4-cyano-phenyl)-pyrido[3,2-d]pyrimidine]
  IC50: 30 nM

## Cc1cccc(NC(=O)N2CCN(c3nc(N)nc4ccc(-c5cccc(C#N)c5)nc34)CC2)c1 [Example 545, 2-amino-4-[(3-methylphenylcarbamoyl)-piperazin-1-yl]-6-(3-cyanophenyl)-pyrido[3,2-d]pyrimidine]
  IC50: 30 nM

## Cc1cccc(NC(=O)N2CCN(c3nc(N)nc4ccc(-c5ccccc5C#N)nc34)CC2)c1 [Example 546, 2-amino-4-[(3-methylphenylcarbamoyl)-piperazin-1-yl]-6-(2-cyano-phenyl)-pyrido[3,2-d]pyrimidine]
  IC50: 4 nM

## Cc1cccc(NC(=O)N2CCN(c3nc(N)nc4ccc(-c5ccccc5F)nc34)CC2)c1 [Example 547, 2-amino-4-[(3-methylphenylcarbamoyl)-piperazin-1-yl]-6-(2-fluoro-phenyl)-pyrido[3,2-d]pyrimidine]
  IC50: 60 nM

## Cc1cccc(NC(=O)N2CCN(c3nc(N)nc4ccc(-c5ccc(C(F)(F)F)cc5)nc34)CC2)c1 [Example 548, 2-amino-4-[(3-methylphenylcarbamoyl)-piperazin-1-yl]-6-(4-trifluoromethylphenyl)-pyrido[3,2-d]pyrimidine]
  IC50: 170 nM

## Cc1cccc(NC(=O)N2CCN(c3nc(N)nc4ccc(-c5ccccc5Cl)nc34)CC2)c1 [Example 549, 2-amino-4-[(3-methylphenylcarbamoyl)-piperazin-1-yl]-6-(2-chlorophenyl)-pyrido[3,2-d]pyrimidine]
  IC50: 80 nM

## Cc1cccc(NC(=O)N2CCN(c3nc(N)nc4ccc(-c5c(C)cccc5C)nc34)CC2)c1 [Example 550, 2-amino-4-[(3-methylphenylcarbamoyl)-piperazin-1-yl]-6-(2,6-dimethyl-phenyl)-pyrido[3,2-d]pyrimidine]
  IC50: 3500 nM

## Cc1cccc(NC(=O)N2CCN(c3nc(N)nc4ccc(-c5c(F)cc(F)cc5F)nc34)CC2)c1 [Example 551, 2-amino-4-[(3-methylphenylcarbamoyl)-piperazin-1-yl]-6-(2,4,6-trifluoro-phenyl)-pyrido[3,2-d]pyrimidine]
  IC50: 500 nM

## Cc1cccc(NC(=O)N2CCN(c3ncnc4ccc(-c5ccc(C#N)cc5)nc34)CC2)c1 [Example 553, 4-[(3-methylphenylcarbamoyl)-piperazin-1-yl]-6-(4-cyanophenyl) Pyrido[3,2-d]pyrimidine]
  IC50: 60 nM

## Cc1cccc(NC(=O)N2CCN(c3ncnc4ccc(-c5cccc(C#N)c5)nc34)CC2)c1 [Example 554, 4-[(3-methylphenylcarbamoyl)-piperazin-1-yl]-6-(3-cyanophenyl)pyrido[3,2-d]pyrimidine]
  IC50: 37 nM

## Cc1cccc(NC(=O)N2CCN(c3ncnc4ccc(-c5ccc(F)c(C)c5)nc34)CC2)c1 [Example 555, 4-[(3-methylphenylcarbamoyl)-piperazin-1-yl]-6-(3-methyl-4-fluoro-phenyl)pyrido[3,2-d]pyrimidine]
  IC50: 300 nM

## Cc1cccc(NC(=O)N2CCN(c3ncnc4ccc(-c5ccc(F)cc5F)nc34)CC2)c1 [Example 556, 4-[(3-methylphenylcarbamoyl)-piperazin-1-yl]-6-(2,4-difluorophenyl)pyrido[3,2-d]pyrimidine]
  IC50: 100 nM

## Cc1cccc(NC(=O)N2CCN(c3ncnc4ccc(-c5ccccc5C#N)nc34)CC2)c1 [Example 557, 4-[(3-methylphenylcarbamoyl)-piperazin-1-yl]-6-(2-cyanophenyl)pyrido[3,2-d]pyrimidine]
  IC50: 30 nM

Reference: US20090264415A2 (priority 2004, published 2009)
